Columns and labels:
[1] = test system: COPD patients; experiment: Spirometry (FEV1, FVC) in 2-week randomized, double dummy, parallel group clinical trial; type: in vivo, human; conditions: for Difference between combined therapy and mono-therapies in change in FEV1AUC0-24, LS mean / Difference between combined therapy and mono-therapies in change in trough FEV1, LS mean / Difference between combined therapy and mono-therapies in peak change in FEV1 over 12 hours, LS mean / Difference between combined therapy and mono-therapies in peak change in FVC over 12 hours, LS mean / Change in trough FEV1, mean (SD) / Difference between combined therapy and mono-therapies in trough FEV1, LS mean: week 2; for Change in trough FEV1, mean (SD): trough = 24 hour time point after morning dose; for mean improvement in peak FVC: from baseline after 2 weeks of treatment
Method: (§1) This was a 2-week, prospective, multi-center (34 sites), randomized, modified blind, double dummy, parallel group study designed to evaluate the efficacy and safety of the combination of arformoterol 15 μg BID and tiotropium 18 μg QD (dosed sequentially) versus the individual mono-therapies in the treatment of COPD patients. The study was conducted according to the principles established by the Declaration of Helsinki (see, e.g., World Medical Association Declaration of Helsinki. Recommendations guiding physicians in biomedical research involving human subjects. JAMA 1997; 277:925-926.). Appropriate Institutional Review boards approved the protocol and written informed consent was obtained from the patients.
All patients had non-asthmatic COPD (including emphysema and/or chronic bronchitis). […] They also were required to have a pre-bronchodilator baseline pulmonary function of FEV1>0.7 L, FEV1/FVC ratio of ≦70%, and FEV1≦65% predicted. Patients were excluded if they had life-threatening or unstable respiratory status within 30 days of the screening visit. Patients who changed their prescribed dose or type of COPD medication within 14 days prior to screening or who had ever used tiotropium bromide inhalation powder were excluded.
(§2) Eligible patients were randomized to receive one of three treatments for 14 days: nebulized arformoterol 15 μg (Brovana®, Sepracor Inc., Marlborough, Mass.) BID and placebo DPI QD, nebulized placebo BID and tiotropium 18 μg (Spriva® HandiHaler® Boehringer Ingelheim, Ridgefield, Conn.) DPI QD, or nebulized arformoterol 15 μg BID and tiotropium 18 μg DPI QD. The nebulized drug was administered first using the PARI LC Plus® nebulizer driven by the Duraneb 3000® compressor (Pari: Pari Respiratory Equipment Inc., Midlothian, Va.) at a flow rate of 3.3 L/minute followed (within 5 minutes) by the DPI administration (HandiHaler®). The tiotropium and placebo DPI capsules were identical in size and shape but differed in color.
(§3) At week 0 and week 2, medical event calendars and blood samples were collected and vital signs and heart measurements analyzed. At week 0, spirometry was performed pre-morning dose, immediately (within 5 minutes) and at 30 minutes, 1, 2, 4, 6, 8, 10, and 12 hours post-first dose. After the 12-hour pulmonary function test patients self-administered the evening dose of study medication. At week 2, serial spirometry was also performed as at week 0, as well as immediately (within 5 minutes) following the evening dose (administered 12 hours after the morning dose) and 12.5, 13, 14, 16, 23, and 24 hours post-morning dose. Inspiratory capacity was evaluated pre-dose and at 2 hours post-morning dose at week 0, and pre-dose and 2, 11, 14, and 24 hours post-morning dose at week 2. All inspiratory capacity measurements were the mean of acceptable inspiratory capacity maneuvers, two of which were reproducible. Prior to an inspiratory capacity maneuver a patient had to have a stable expiratory level for about 10 breaths. Once the stable level was achieved, at the end of exhalation of a normal breath the patient was asked to make a steady and full inhalation at normal inspiratory flow rates until the lungs were completely full, and then to exhale at a normal rate.
(§4) All pulmonary function values used were the highest among the three acceptable maneuvers. The Investigator ensured that all spirometry was performed in accordance with the American Thoracic Society/European Respiratory Society Standardisation of Spirometry guidelines (see, e.g., Miller M R, Hankinson J, Brusasco V, Burgos F, Casaburi R, Coates A, et al. Standardisation of spirometry. Eur Respir J 2005; 26:319-338; herein incorporated in its entirety by reference). Centralized over-reading of spirometry and inspiratory capacity pulmonary function measures were used for quality control.

[2] = test system: COPD patients; experiment: Inspiratory capacity in 2-week clinical trial; type: in vivo, human; conditions: for Mean (SD) inspiratory capacity improvement from baseline: 2-hours post-dosing; for Difference in trough FEV1 between combined therapy and mono-therapies, LS mean / Change in trough inspiratory capacity, mean (SD): ITT; for Difference in trough FEV1 between combined therapy and mono-therapies, LS mean / Change in trough inspiratory capacity, mean (SD) / Difference between combined therapy and mono-therapies in change in inspiratory capacity, LS mean: week 2; for Difference in trough FEV1 between combined therapy and mono-therapies, LS mean: printed below the trough inspiratory capacity line, combined therapy versus the mono-therapy; for Change in trough inspiratory capacity, mean (SD): trough = 24 hour time point after morning dose; for Difference between combined therapy and mono-therapies in change in inspiratory capacity, LS mean: combined versus the mono-therapy; for Change in Inspiratory Capacity, mean (SD): week 2 from study baseline
Method: as §1, §2, §3, §4
The study was designed to detect a mean treatment difference of time normalized FEV1AUC over 24 hours (FEV1AUC0-24) (the primary endpoint) of 0.075 L with a standard deviation of 0.016 L when comparing combined therapy with mono-therapy, using a two-sided 5% significance level, following 2-weeks of dosing for the primary comparison with 80% power. All efficacy analyses were performed on the ITT population. All statistical testing was 2-tailed and conducted at the 5% significance level, unless otherwise indicated.

[3] = ITT, change from baseline at week 2
[4] = ITT, change from baseline at week 2, time normalized
[5] = ITT, combined therapy versus the mono-therapy
[6] = baseline percent predicted FEV1 <50%, combined versus the mono-therapy
[7] = baseline percent predicted FEV1 <50%, week 2 from study baseline
[8] = baseline percent predicted FEV1 <50%, week 2 from study baseline (pre-dose week 0)
[9] = baseline percent predicted FEV1 ≧50%, combined versus the mono-therapy
[10] = baseline percent predicted FEV1 ≧50%, week 2 from study baseline
[11] = baseline percent predicted FEV1 ≧50%, week 2 from study baseline (pre-dose week 0)
[12] = baseline percent predicted FEV1 <50%
[13] = baseline percent predicted FEV1 ≧50%

| SMILES | Peak Change in FEV1 over 12 hours, mean (SD) [1, 3] | Peak change in FVC over 12 hours, mean (SD) [1, 3] | Change in FEV1AUC0-24, mean (SD) [1, 4] | Difference between combined therapy and mono-therapies in change in FEV1AUC0-24, LS mean [1, 5] [L] | Difference between combined therapy and mono-therapies in change in trough FEV1, LS mean [1, 5] [L] | Difference between combined therapy and mono-therapies in peak change in FEV1 over 12 hours, LS mean [1, 5] [L] | Difference between combined therapy and mono-therapies in peak change in FVC over 12 hours, LS mean [1, 5] [L] | Change in trough FEV1, mean (SD) ([1]; ITT) | Difference between combined therapy and mono-therapies in change in FEV1AUC0-24, LS mean [1, 6] [L] | Difference between combined therapy and mono-therapies in peak change in FEV1 over 12 hours, LS mean [1, 6] [L] | Difference between combined therapy and mono-therapies in peak change in FVC over 12 hours, LS mean [1, 6] [L] | Difference between combined therapy and mono-therapies in trough FEV1, LS mean [1, 6] [L] | Peak Change in FEV1 over 12 hours, mean (SD) [1, 7] | Peak change in FVC over 12 hours, mean (SD) [1, 7] | Trough FEV1 (change in FEV1 at 24 hours post-dose), mean (SD) [1, 7] | Change in FEV1AUC0-24, mean (SD) [1, 8] | Difference between combined therapy and mono-therapies in change in FEV1AUC0-24, LS mean [1, 9] [L] | Difference between combined therapy and mono-therapies in peak change in FEV1 over 12 hours, LS mean [1, 9] [L] | Difference between combined therapy and mono-therapies in peak change in FVC over 12 hours, LS mean [1, 9] [L] | Difference between combined therapy and mono-therapies in trough FEV1, LS mean [1, 9] [L] | other results |
| --- | --- | --- | --- | --- | --- | --- | --- | --- | --- | --- | --- | --- | --- | --- | --- | --- | --- | --- | --- | --- | --- |
| C[N+]1(C)[C@@H]2C[C@@H](OC(=O)C(O)(c3cccs3)c3cccs3)C[C@H]1[C@@H]1O[C@@H]12 [Tiotropium] | 0.27 (0.23) L | 0.40 (0.34) L | 0.08 (0.20) L | 0.14 | 0.07 | 0.11 | 0.20 | 0.08 (0.21) L | 0.16 | 0.14 | 0.28 | 0.10 | 0.29 (0.26) L | 0.43 (0.37) L | 0.11 (0.22) L | 0.10 (0.22) L | 0.12 | 0.09 | 0.08 | 0.04 | Peak Change in FEV1 over 12 hours, mean (SD) [1, 10]: 0.23 (0.16) L; Peak change in FVC over 12 hours, mean (SD) [1, 10]: 0.34 (0.28) L; Trough FEV1 (change in FEV1 at 24 hours post-dose), mean (SD) [1, 10]: 0.03 (0.17) L; Change in FEV1AUC0-24, mean (SD) [1, 11]: 0.05 (0.14) L; mean improvement in peak FVC [1]: 40 mL; LS mean (±SE) peak improvement in FEV1 from visit pre-dose [1]: 0.19 L; Mean (SD) inspiratory capacity improvement from baseline [2]: 0.19 L; Difference in trough FEV1 between combined therapy and mono-therapies, LS mean [2]: 0.12 L; Change in trough inspiratory capacity, mean (SD) [2]: 0.02 (0.29) L; Difference between combined therapy and mono-therapies in change in inspiratory capacity, LS mean [2, 12]: 0.17 L; Change in Inspiratory Capacity, mean (SD) [2, 12]: 0.02 (0.27) L; Difference between combined therapy and mono-therapies in change in inspiratory capacity, LS mean [2, 13]: 0.02 L; Change in Inspiratory Capacity, mean (SD) [2, 13]: 0.04 (0.33) L |
| COc1ccc(C[C@@H](C)NC[C@H](O)c2ccc(O)c(NC=O)c2)cc1 [Arformoterol] | 0.27 (0.21) L | 0.48 (0.37) L | 0.10 (0.21) L | 0.12 | 0.07 | 0.11 | 0.12 | 0.09 (0.23) L | 0.11 | 0.11 | 0.15 | 0.08 | 0.31 (0.23) L | 0.56 (0.41) L | 0.13 (0.23) L | 0.15 (0.22) L | 0.14 | 0.10 | 0.08 | 0.05 | mean FEV1 improvement 2-hours after the evening dose ([1]; 2 hours after evening dose): ~182 mL; mean FEV1 improvement 2-hours after the morning dose ([1]; 2 hours after morning dose): approximately 213 mL; Peak Change in FEV1 over 12 hours, mean (SD) [1, 10]: 0.22 (0.17) L; Peak change in FVC over 12 hours, mean (SD) [1, 10]: 0.34 (0.25) L; Trough FEV1 (change in FEV1 at 24 hours post-dose), mean (SD) [1, 10]: 0.02 (0.21) L; Change in FEV1AUC0-24, mean (SD) [1, 11]: 0.03 (0.19) L; mean improvement in peak FVC [1]: 48 mL; LS mean (±SE) peak improvement in FEV1 from visit pre-dose [1]: 0.19 L; Mean (SD) inspiratory capacity improvement from baseline [2]: 0.20 L; Difference in trough FEV1 between combined therapy and mono-therapies, LS mean [2]: 0.07 L; Change in trough inspiratory capacity, mean (SD) [2]: 0.07 (0.30) L; Difference between combined therapy and mono-therapies in change in inspiratory capacity, LS mean [2, 12]: 0.08 L; Change in Inspiratory Capacity, mean (SD) [2, 12]: 0.12 (0.31) L; Difference between combined therapy and mono-therapies in change in inspiratory capacity, LS mean [2, 13]: 0.06 L; Change in Inspiratory Capacity, mean (SD) [2, 13]: −0.01 (0.27) L |

From patent US20140336218A1, “ARFORMOTEROL AND TIOTROPIUM COMPOSITIONS AND METHODS FOR USE” (priority 2008, published 2014)
